# Laboratory results: US10485235B2, “Aryloxypyrimidinyl ethers as herbicides” (FMC Corporation, priority 2015, dated 2019)
# Legend:
# Assay type in all cases: in vivo
# [1] = tested on: ducksalad (Heteranthera limosa); assay: Test B flooded paddy test, ducksalad; conditions: 250 g ai/ha, Flood; visual rating after 13 to 15 days; scale 0 to 100, 0 is no effect, 100 is complete control
# Experimental: (§1) Plant species in the flooded paddy test selected from rice (Oryza sativa), sedge, umbrella (small-flower umbrella sedge, Cyperus difformis), ducksalad (Heteranthera limosa), and barnyardgrass (Echinochloa crus-galli) were grown to the 2-leaf stage for testing. At time of treatment, test pots were flooded to 3 cm above the soil surface, treated by application of test compounds directly to the paddy water, and then maintained at that water depth for the duration of the test. Treated plants and controls were maintained in a greenhouse for 13 to 15 days, after which time all species were compared to controls and visually evaluated. Plant response ratings, summarized in Table B, are based on a scale of 0 to 100 where 0 is no effect and 100 is complete control. A dash (—) response means no test result.
# [2] = tested on: pigweed (Amaranthus retroflexus); assay: Test A preemergence, pigweed; conditions: Preemergence, 0 to 100 scale (0 no effect, 100 complete control)
# From the text: (§2) Seeds of plant species selected from barnyardgrass (Echinochloa crus-galli), kochia (Kochia scoparia), ragweed (common ragweed, Ambrosia elatior), ryegrass, Italian (Italian ryegrass, Lolium multiflorum), foxtail, giant (giant foxtail, Setaria faberii), and pigweed (Amaranthus retroflexus), were planted into a blend of loam soil and sand and treated preemergence with a directed soil spray using test chemicals formulated in a non-phytotoxic solvent mixture which included a surfactant.
# (§3) At the same time, plants selected from these weed species and also wheat (Triticum aestivum), corn (Zea mays), blackgrass (Alopecurus myosuroides), and galium (catchweed bedstraw, Galium aparine), were planted in pots containing the same blend of loam soil and sand and treated with postemergence applications of test chemicals formulated in the same manner. Plants ranged in height from 2 to 10 cm and were in the one- to two-leaf stage for the postemergence treatment. Treated plants and untreated controls were maintained in a greenhouse for approximately 10 days, after which time all treated plants were compared to untreated controls and visually evaluated for injury. Plant response ratings, summarized in Table A, are based on a 0 to 100 scale where 0 is no effect and 100 is complete control. A dash (—) response means no test result.
# [3] = tested on: barnyardgrass (Echinochloa crus-galli); assay: Test B flooded paddy test, barnyardgrass; conditions: 250 g ai/ha, Flood; visual rating after 13 to 15 days; scale 0 to 100, 0 is no effect, 100 is complete control
# Experimental: as §1
# [4] = tested on: ragweed (common ragweed, Ambrosia elatior); assay: Test A postemergence, ragweed; conditions: postemergence, 0 to 100 scale, 0 is no effect, 100 is complete control, approximately 10 days
# From the text: as §2, §3
# [5] = tested on: galium (catchweed bedstraw, Galium aparine); assay: Test A postemergence, galium; conditions: postemergence, 0 to 100 scale, 0 is no effect, 100 is complete control, approximately 10 days
# From the text: as §2, §3
# [6] = tested on: wheat (Triticum aestivum); assay: Test A postemergence, wheat; conditions: postemergence, 0 to 100 scale, 0 is no effect, 100 is complete control, approximately 10 days
# From the text: as §2, §3
# [7] = tested on: foxtail, giant (giant foxtail, Setaria faberii); assay: Test A preemergence, giant foxtail; conditions: Preemergence, 0 to 100 scale (0 no effect, 100 complete control)
# From the text: as §2, §3
# [8] = tested on: barnyardgrass (Echinochloa crus-galli); assay: Test A preemergence, barnyardgrass; conditions: Preemergence, 0 to 100 scale (0 no effect, 100 complete control)
# From the text: as §2, §3
# [9] = tested on: pigweed (Amaranthus retroflexus); assay: Test A postemergence, pigweed; conditions: postemergence, 0 to 100 scale, 0 is no effect, 100 is complete control, approximately 10 days
# From the text: as §2, §3
# [10] = tested on: foxtail, giant (giant foxtail, Setaria faberii); assay: Test A postemergence, giant foxtail; conditions: postemergence, 0 to 100 scale, 0 is no effect, 100 is complete control, approximately 10 days
# From the text: as §2, §3
# rice (Oryza sativa) = assay: Test B flooded paddy test, rice; conditions: 250 g ai/ha, Flood; visual rating after 13 to 15 days; scale 0 to 100, 0 is no effect, 100 is complete control
# Experimental: as §1
# kochia (Kochia scoparia) [11] = assay: Test A preemergence, kochia; conditions: Preemergence, 0 to 100 scale (0 no effect, 100 complete control)
# From the text: as §2, §3
# kochia (Kochia scoparia) [12] = assay: Test A postemergence, kochia; conditions: postemergence, 0 to 100 scale, 0 is no effect, 100 is complete control, approximately 10 days
# From the text: as §2, §3
# [13] = tested on: ragweed (common ragweed, Ambrosia elatior); assay: Test A preemergence, ragweed; conditions: Preemergence, 0 to 100 scale (0 no effect, 100 complete control)
# From the text: as §2, §3
# [14] = tested on: sedge, umbrella (small-flower umbrella sedge, Cyperus difformis); assay: Test B flooded paddy test, umbrella sedge; conditions: 250 g ai/ha, Flood; visual rating after 13 to 15 days; scale 0 to 100, 0 is no effect, 100 is complete control
# Experimental: as §1
# corn (Zea mays) = assay: Test A postemergence, corn; conditions: postemergence, 0 to 100 scale, 0 is no effect, 100 is complete control, approximately 10 days
# From the text: as §2, §3
# [15] = tested on: barnyardgrass (Echinochloa crus-galli); assay: Test A postemergence, barnyardgrass; conditions: postemergence, 0 to 100 scale, 0 is no effect, 100 is complete control, approximately 10 days
# From the text: as §2, §3
# [16] = tested on: blackgrass (Alopecurus myosuroides); assay: Test A postemergence, blackgrass; conditions: postemergence, 0 to 100 scale, 0 is no effect, 100 is complete control, approximately 10 days
# From the text: as §2, §3
# [17] = tested on: ryegrass, Italian (Italian ryegrass, Lolium multiflorum); assay: Test A postemergence, Italian ryegrass; conditions: postemergence, 0 to 100 scale, 0 is no effect, 100 is complete control, approximately 10 days
# From the text: as §2, §3
# [18] = tested on: ryegrass, Italian (Italian ryegrass, Lolium multiflorum); assay: Test A preemergence, Italian ryegrass; conditions: Preemergence, 0 to 100 scale (0 no effect, 100 complete control)
# From the text: as §2, §3
Structure (SMILES),"Plant response rating, Ducksalad [1]","Plant response rating, Pigweed ([2]; 125 g ai/ha)","Plant response rating, Barnyardgrass [3]","Plant response rating, Ragweed ([4]; 125 g ai/ha)","Plant response rating, Galium ([5]; 125 g ai/ha)","Plant response rating, Wheat ([6]; 125 g ai/ha)","Plant response rating, Foxtail, Giant ([7]; 125 g ai/ha)","Plant response rating, Barnyardgrass ([8]; 125 g ai/ha)","Plant response rating, Pigweed ([9]; 125 g ai/ha)","Plant response rating, Foxtail, Giant ([10]; 125 g ai/ha)","Plant response rating, Rice (rice (Oryza sativa))","Plant response rating, Kochia (kochia (Kochia scoparia) [11]; 125 g ai/ha)","Plant response rating, Kochia (kochia (Kochia scoparia) [12]; 125 g ai/ha)","Plant response rating, Ragweed ([13]; 125 g ai/ha)","Plant response rating, Sedge, Umbrella [14]","Plant response rating, Corn (corn (Zea mays); 125 g ai/ha)","Plant response rating, Barnyardgrass ([15]; 125 g ai/ha)","Plant response rating, Blackgrass ([16]; 125 g ai/ha)","Plant response rating, Ryegrass, Italian ([17]; 125 g ai/ha)","Plant response rating, Ryegrass, Italian ([18]; 125 g ai/ha)",also measured
O=C(CCC(F)(F)F)COc1c(Br)cccc1Oc1ncc(Cl)cn1 [Compound 56],85,80,0,0,40,20,90,90,100,30,30,50,60,0,75,30,20,20,10,0,"Plant response rating, Pigweed ([2]; 31 g ai/ha): 0; Plant response rating, Ragweed ([4]; 31 g ai/ha): 0; Plant response rating, Galium ([5]; 31 g ai/ha): 10; Plant response rating, Wheat ([6]; 31 g ai/ha): 0; Plant response rating, Foxtail, Giant ([7]; 31 g ai/ha): 0; Plant response rating, Barnyardgrass ([8]; 31 g ai/ha): 0; Plant response rating, Pigweed ([9]; 31 g ai/ha): 40; Plant response rating, Foxtail, Giant ([10]; 31 g ai/ha): 0; Plant response rating, Kochia (kochia (Kochia scoparia) [11]; 31 g ai/ha): 0; Plant response rating, Kochia (kochia (Kochia scoparia) [12]; 31 g ai/ha): 0; Plant response rating, Ragweed ([13]; 31 g ai/ha): 0; Plant response rating, Corn (corn (Zea mays); 31 g ai/ha): 10; Plant response rating, Barnyardgrass ([15]; 31 g ai/ha): 0; Plant response rating, Blackgrass ([16]; 31 g ai/ha): 0; Plant response rating, Ryegrass, Italian ([17]; 31 g ai/ha): 0; Plant response rating, Ryegrass, Italian ([18]; 31 g ai/ha): 0"
CC(COc1c(C#N)cccc1Oc1ncc(Cl)cn1)CC(F)(F)F (stereo not drawn) [Compound 34],40,100,0,10,70,10,100,70,100,40,20,80,90,0,75,20,20,20,0,10,"Plant response rating, Pigweed ([2]; 500 g ai/ha): 100; Plant response rating, Ragweed ([4]; 500 g ai/ha): 10; Plant response rating, Galium ([5]; 500 g ai/ha): 90; Plant response rating, Wheat ([6]; 500 g ai/ha): 20; Plant response rating, Foxtail, Giant ([7]; 500 g ai/ha): 100; Plant response rating, Barnyardgrass ([8]; 500 g ai/ha): 100; Plant response rating, Pigweed ([9]; 500 g ai/ha): 100; Plant response rating, Foxtail, Giant ([10]; 500 g ai/ha): 90; Plant response rating, Kochia (kochia (Kochia scoparia) [11]; 500 g ai/ha): 100; Plant response rating, Kochia (kochia (Kochia scoparia) [12]; 500 g ai/ha): 100; Plant response rating, Ragweed ([13]; 500 g ai/ha): 10; Plant response rating, Corn (corn (Zea mays); 500 g ai/ha): 40; Plant response rating, Barnyardgrass ([15]; 500 g ai/ha): 50; Plant response rating, Blackgrass ([16]; 500 g ai/ha): 60; Plant response rating, Ryegrass, Italian ([17]; 500 g ai/ha): 20; Plant response rating, Ryegrass, Italian ([18]; 500 g ai/ha): 40"
